Seven compounds from paper PMC12251307, “One-Pot Synthesis of Novel Pyrimidine Derivatives with Potential Antidiabetic Activity Through Dual α-Glucosidase and α-Amylase Inhibitors” (Molecules, 2025) can be followed below.

One experiment has as its target α-amylase. Put plainly: α-amylase activity assay (colorimetric kit). As to conditions: IC50 ± SD, n = 5; acarbose as standard drug. The class given is biochemical. The method, then: (§1) All chemicals were supplied from Sigma-Aldrich (St. Louis, MO, USA). Melting points were determined via the Stuart SMP10 Digital Advanced MP apparatus (Cole-Parmer Ltd., Stone, UK) and are uncorrected. FTIR spectra were carried out on PerkinElmer (FTIR spectrometer, PerkinElmer Inc., Waltham, MA, USA), which mixed without using anhydrous KBr. The NMR spectra were recorded by JEOL RESONANCE spectrometer (Akishima, Japan) 500 MHZ by using DMSO-d6 as the solvent and chemical shifts (δ) and were recorded in parts per million (ppm) using tetramethyl silane (TMS) as the internal standard. The mass spectra were carried out on LC/MS spectroscopy (LCMS-8040 Shimadzu, Kyoto, Japan, model CAT-30A). Serial no. L20574900241 AE, 220–240 v~50/60 HZ 300 VA was used to record LCMS spectral data for samples. Elemental microanalysis was done on a Carlo Erba analyzer model 110 (Carlo Erba Instruments, Milan, Italy). Also used were α-amylase Assay Kit (Colorimetric) […] (Abcam, Cambridge, MA, USA), α-glucosidase Activity Assay Kit (Colorimetric) […] (Abcam, Cambridge, MA, USA), and Elisa: BioTek (Winooski, VT, USA) introduces Synergy Neo2 high performance Multi-Mode Microplate Reader.
The % inhibition was calculated as follows:% Inhibition = (Absorbancecontrol − Absorbancecompound) × 100/Absorbancecontrol

A further experiment concerns the target α-glucosidase. Put plainly: α-glucosidase activity assay (colorimetric kit). As to conditions: IC50 ± SD, n = 5; acarbose as standard drug. The class given is biochemical. The method, then: as §1
The α-glucosidase activity assay was conducted as we reported earlier. Samples (50 μL) were added to 96 wells, and the volume was adjusted to 100 μL/well with an assay buffer. For the reaction, 50 μL of reaction mix for each reaction were performed by adding assay buffer 47 μL and substrate mix 3 μL.

The IC50 is the point on the concentration scale where inhibition reaches its midpoint. For `COc1cc(NNC(=S)Nc2cccc([N+](=O)[O-])c2)nc(N)n1` [Compound 11, 2-(2-Amino-6-methoxypyrimidin-4-yl)-N-(3-nitrophenyl)hydrazine Carbothioamide], the IC50 at α-amylase came to 21.14 ± 0.12 µM; on α-glucosidase, 22.11 ± 0.13 µM.
`COc1cc(NNC(=S)Nc2cccc(Cl)c2)nc(N)n1` [Compound 6, 2-(2-Amino-6-methoxypyrimidin-4-yl)-N-(3-chlorophenyl) Hydrazine Carbothioamide]: the values for the 50% inhibitory concentration (IC50) at α-amylase and on α-glucosidase were 15.17 ± 0.07 µM and 16.13 ± 0.11 µM, respectively.
As to `COc1cc(NNC(=S)Nc2ccc(C)cc2)nc(N)n1` [Compound 16, 2-(2-Amino-6-methoxypyrimidin-4-yl)-N-(p-tolyl)hydrazine Carbothioamide], the IC50 came out at 34.24 ± 0.16 µM at α-amylase and 36.14 ± 0.12 µM on α-glucosidase.
For `COc1cc(NNC(=S)Nc2cccc(F)c2)nc(N)n1` [Compound 4, 2-(2-Amino-6-methoxypyrimidin-4-yl)-N-(3-fluorophenyl)hydrazine Carbothioamide], in that order: 11.1 ± 0.12 µM and 12.16 ± 0.12 µM.
For `COc1cccc(NC(=S)NNc2cc(OC)nc(N)n2)c1` [Compound 14, 2-(2-Amino-6-methoxypyrimidin-4-yl)-N-(3-methoxyphenyl)-hydrazine Carbothioamide], the 50% inhibitory concentration (IC50) at α-amylase amounted to 33.18 ± 0.14 µM; on α-glucosidase it was 30.12 ± 0.13 µM.
For the compound `COc1cc(NNC(=S)Nc2cccc(C#N)c2)nc(N)n1` [Compound 17, 2-(2-Amino-6-methoxypyrimidin-4-yl)-N-(3-cyanophenyl)hydrazine Carbothioamide], the IC50 on α-amylase stood at 40.16 ± 0.11 µM; at α-glucosidase, 42.19 ± 0.13 µM.
In the case of `COc1cc(NNC(=S)Nc2cccc(Br)c2)nc(N)n1` [Compound 9, 2-(2-Amino-6-methoxypyrimidin-4-yl)-N-(3-bromophenyl)-hydrazine Carbothioamide], the IC50 at α-amylase came to 18.16 ± 0.08 µM; at α-glucosidase, 19.11 ± 0.11 µM.
